The numbers were not newly measured in PubChem BioAssay AID1259409 (Chemical Carcinogenesis Research Information System (CCRIS), 2018), which cites them from elsewhere.

This series has as its system rodent chemically induced tumor inhibition, incidence and multiplicity. In words: CCRIS tumor inhibitor studies. The note with it: Carcinogen: 7,12-DIMETHYLBENZ[A]ANTHRACENE [57-97-6]; Dose [Inhibitor]: 0; 0.1% IN 0.2 ML DMSO-ACETONE (15:85, V/V) 2X/WK FOR 30 WK 10 MIN PRIOR TO PROMOTER DOSE (STUDY DURATION: 31 WK); Route [Inhibitor]: DERMAL; Species: MOUSE; Strain/Sex: ICR/FEMALE; Target Tissue: Type of Lesion: SKIN: PAPILLOMA; Dose [Carcinogen]: 0.2 UMOL ONCE (STUDY DURATION: 31 WK); Promoter: 12-O-TETRADECANOYLPHORBOL-13-ACETATE [16561-29-8].

Take `O=C(O)c1ccc(-c2c3nc(c(-c4ccc(C(=O)O)cc4)c4ccc([nH]4)c(-c4ccc(C(=O)O)cc4)c4ccc([nH]4)c(-c4ccc(C(=O)O)cc4)c4nc2C=C4)C=C3)cc1`: the “tumour outcome (control, treated, inhibition, significance)” value is listed as 100%, 73%, 27%, not calculated.
